# Measured values: patent US10487045B2, “Adamantane derivative and use thereof” (TOHOKU UNIVERSITY, priority 2016, dated 2019)
# Legend:
# APP23 mice = assay: Long-term potentiation (LTP) in hippocampal slices, electrophysiological technique; assay type: in vivo; conditions: hippocampal slices of APP23 mice chronically treated
# Method: FIG. 4e to FIG. 4g show the results of long-term potentiation phenomenon (LTP)(serving as an index of memory formation) analyzed by an electrophysiological technique. The hippocampus in the brain plays an important role in memorization. The hippocampus was cut into slice sections (400 micrometers in thickness). The slice sections were placed in an artificial cerebrospinal fluid (126 mM NaCl, 5 mM KCL, 26 mM NaHCO3, 1.3 mM MgSO4-7H2O, 1.26 mM KH2PO4, 2.4 mM CaCl2-2H2O, 10 mM glucose) saturated with a 95% O2/5% CO2 gas at 34° C. for two hours and recovered. The hippocampal slice sections were transferred to a measuring chamber and the artificial cerebrospinal fluid containing TP-014 was perfused. The activity of the nerve cells when electrical stimulation was applied was recorded and the postsynaptic assembly potential (fEPSP) was measured. Based on them, the degree of LTP improvement was evaluated. Thereafter, an electrical stimulation (100 Hz) was applied to the hippocampus to cause a […] (it is considered that memory is formed by a […] in the hippocampus). It was confirmed that an increase rate of the neuronal excitation decreases in APP23 mice; whereas the increase rate is improved in the mice chronically treated with TP-014.
# [1] = system: Kir6.2 channel deficient mice; assay: Cognitive function tests and LTP in Kir6.2 channel deficient mice; assay type: in vivo; conditions: chronic treatment (two months)
# Excerpt: To confirm that TP-014 action is Kir6.2 channel inhibitory action, the action site of TP-014 was identified by the same behavioral experiment as in FIG. 4 (FIG. 8a and FIG. 8b: Y-maze test, FIG. 8c: new object recognition test method, FIG. 8d: fear conditioning test method, FIG. 8e to FIG. 8g: LTP improvement evaluation, n=5 per group) using Kir6.2 channel deficient mice. It was confirmed that cognitive dysfunction is induced in Kir6.2 defective mice. […] It was also shown that memory disturbance and LTP attenuation of Kir6.2 defective mice are not improved by TP-014 chronic treatment (two months). […] The analytical methods are the same as in Test Examples 4 to 7. Note that, Kir6.2 defective mice were obtained from Professor Susumu Seino, School of Medicine of Kobe University (Miki T et al., Proc. Natl. Acad. Sci. U.S.A. 1998, 95, 10402-10406).
# Kir6.2 defective mice = assay: Immunoblotting of hippocampus for CaMKII activation in Kir6.2 defective mice; assay type: in vivo; conditions: chronic treatment
# Method: Activation of CaMKII was investigated in the same manner as in FIGS. 4 to 7. In addition, GluA1 (Ser-831), which is known as a molecule activated by activation of CaMKII, was investigated. Hippocampal slices were suspended in an SDS sample buffer to prepare a suspension, which was subjected to immunoblotting. In this way, the intracellular mechanism of cognitive dysfunction in Kir6.2 defective mice was analyzed. The results are shown in FIG. 9 (FIG. 9a: band images by immunoblotting, FIG. 9b: quantification results of signal intensities of bands). In the hippocampus of Kir6.2 defective mice, activation of CaMKII was accelerated. Even in the case of chronic treatment with TP-014, no influence was observed.
# Kir6.1 channel = target: T1, Kir6.1 channel (Mus musculus, UniProt P97794); assay: Patch-clamp measurement of outward potassium current in Kir6.1 channel-overexpressing cells; assay type: cell-based; conditions: 10 nM TP-014, Test Example 15 (Kir6.1 channel)
# T1 construct: expressed in transfected cells; host or cells: Neuro2A (N2A) cells, transient transfection with pcDNA3.1-Kir6.1 (gift of Prof. Toru Ishizuka, Tohoku University)
# T1 sequence (P97794 1-424): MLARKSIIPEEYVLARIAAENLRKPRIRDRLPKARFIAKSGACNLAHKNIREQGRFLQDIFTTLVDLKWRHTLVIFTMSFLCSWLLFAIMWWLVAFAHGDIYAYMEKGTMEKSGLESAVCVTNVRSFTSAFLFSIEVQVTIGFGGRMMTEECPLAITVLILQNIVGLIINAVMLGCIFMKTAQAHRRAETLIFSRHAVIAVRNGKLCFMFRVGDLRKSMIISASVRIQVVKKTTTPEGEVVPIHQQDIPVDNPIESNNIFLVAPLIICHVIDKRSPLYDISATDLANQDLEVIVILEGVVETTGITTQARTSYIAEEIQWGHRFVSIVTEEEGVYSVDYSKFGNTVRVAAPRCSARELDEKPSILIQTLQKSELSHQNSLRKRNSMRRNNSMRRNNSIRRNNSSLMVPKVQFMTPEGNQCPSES
# Method: A plasmid vector having cDNA of Kir6.1 channel inserted therein: pcDNA3.1-Kir6.1, was obtained from professor Toru Ishizuka of Graduate School of Life Sciences, Tohoku University. N2A cells overexpressing Kir6.1 channel were obtained in the same manner as in “preparation of N2A cells overexpressing Kir6.2 channel” of Test Example 1 except that the above plasmid was used.
# Using Kir6.1 channel-overexpressing cells obtained, potassium current flowing outside from cells was measured by the ordinary patch-clamp method. ATP-sensitive potassium channel (Kir6.1 channel) was localized in the cell membrane of the nerve cells. If the channel is inhibited and clogged, the threshold of the nerve cell membrane rises to produce the analogous state as where an action potential is temporarily generated, with the result that potassium current flows out from cells outside and, in place, calcium current flows into the cells from outside. […] This was confirmed by applying immunoblotting (the same conditions as in Test Example 1 were employed except that anti-Kir6.1 channel antibody, n=5) with an anti-Kir6.1 channel antibody (prepared based on an ordinary method) to Kir6.1 channel-overexpressing cells (prepared by the aforementioned method).
smiles,measurement,setting,value
"O=C(N[C@@H](c1ccccc1)[C@H]1[C@H]2C[C@@H]3C[C@](Cl)(C2)C[C@@]1(OC(=O)C(F)(F)F)C3)C(F)(F)F [TP-014, (1S,2R,3S,5S,7S)-5-chloro-2-((R)-phenyl(2,2,2-trifluoroacetamido)methyl)adamantan-1-yl 2,2,2-trifluoroacetate]","LTP, increase rate of neuronal excitation (fEPSP) after 100 Hz stimulation",APP23 mice,improved
same,memory disturbance and LTP attenuation of Kir6.2 defective mice,[1],not improved
same,activation of CaMKII in hippocampus of Kir6.2 defective mice,Kir6.2 defective mice,no influence
same,outward potassium current,Kir6.1 channel,suppressed
